In publication PMC6112376, “Comprehensive Analyses and Prioritization of Tox21 10K Chemicals Affecting Mitochondrial Function by in-Depth Mechanistic Studies” (Environmental Health Perspectives, 2018):
Where a name gives a salt, the structure may show the parent alone. Read-outs that look alike come from different tables or passages of the source.

Legend:
HepG2 cells [1] = conditions: cited from earlier work
rat primary hepatocytes [2] = test system: rat primary hepatocytes
rat primary hepatocytes [3] = assay: MMP assay in rat primary hepatocytes; conditions: for IC50: read-out: MMP assays IC50 (µM) Rat Hepatocytes
HepG2 cells [4] = conditions: for IC50: read-out: MMP assays IC50 (µM) HepG2
[5] = read-out: MMP assays IC50 (µM) qHTS-HepG2
[6] = read-out: MMP assays IC50 (µM), qHTS-HepG2

Molecule	MMP assays efficacy (%) qHTS-HepG2 (HepG2 cells [1])	IC50 (HepG2 cells [1]; [5]) [µM]	MMP assays efficacy (%) Rat Hepatocytes (rat primary hepatocytes [2])	IC50 (rat primary hepatocytes [3]) [µM]	MMP assays efficacy (%) HepG2 (HepG2 cells [4])	IC50 (HepG2 cells [4]) [µM]	IC50 (HepG2 cells [1]; [6]) [µM]	IC50 (rat primary hepatocytes [3]; Rattus norvegicus, Hepatocyte) [µM]	MMP assays IC50 (µM) HepG2 (HepG2 cells [4])	MMP assays IC50 (µM) qHTS-HepG2 (HepG2 cells [1])	MMP assays IC50 (µM) Rat Hepatocytes (rat primary hepatocytes [3])
CC1(COc2ccc(CC3SC(=O)NC3=O)cc2)CCCCC1 (stereo not shown) [Ciglitizone]	-106±9%	8.22 ± 1.6	-84±44%	9.92 ± 4.25	-97%	14.1	–	–	–	–	–
CCCCCCCCCCCCCC[P+](CCCC)(CCCC)CCCC.[Cl-] [Tributyltetradecylphosphonium chloride]	-82±17%	–	-93±15%	7.66 ± 0.5	–	1.12	0.71 ± 0.15	–	–	–	–
O=[N+]([O-])c1ccc2ncccc2c1 [Compound 6-Nitroquinoline]	-51±5%	30.7 ± 11.5	-29±7%	–	inactive	–	–	44.8 ± 16.3	inactive	–	–
Nc1cccc(O)c1 [Compound 3-Aminophenol]	inactive	–	inactive	–	inactive	–	–	–	inactive	inactive	inactive
O=C1[C@H](CC[C@H](O)c2ccc(F)cc2)[C@@H](c2ccc(O)cc2)N1c1ccc(F)cc1	-81±11%	25.6 ± 3.54	-52±2%	16.6 ± 20.1	-112%	–	–	–	–	–	–
Methyl violet	-121±3%	–	-81±20%	1.73	-100%	0.44	0.07 ± 0.03	–	–	–	–
COc1cc([C@@H]2c3cc4c(cc3[C@@H](O)[C@H]3COC(=O)[C@H]23)OCO4)cc(OC)c1O [4'-Demethylepipodophyllotoxin]	-51±8%	2.66 ± 3.92	inactive	–	-63%	2.18	–	–	–	–	inactive
[Ba+2].[Cl-].[Cl-] [Barium chloride]	-68±11%	16.6 ± 8.5	inactive	–	-46%	39.8	–	–	–	–	inactive
CC(=O)[C@]1(O)Cc2c(O)c3c(c(O)c2[C@@H](O[C@H]2C[C@H](N)[C@H](O)[C@H](C)O2)C1)C(=O)c1ccccc1C3=O [Idarubicin hydrochloride]	-124±48%	–	-38±9%	–	inactive	–	6.83 ± 1.46	27 ± 10.7	inactive	–	–
CC=O [Acetaldehyde]	-90±14%	18 ± 6.38	-52±35%	6.65 ± 4.48	inactive	–	–	–	inactive	–	–
Nc1ccc(-c2ccc(N)c(N)c2)cc1N [3,3',4,4'-Tetraaminobiphenyl tetrahydrochloride]	-92±8%	0.34 ± 0.26	-39±5%	9.46 ± 4.43	-82%	2	–	–	–	–	–
c1ccc(C2(N3CCCC3)CCCCC2)cc1 [Rolicyclidine]	-97±15%	–	inactive	–	inactive	–	22.3 ± 2.32	–	inactive	–	inactive
Dinocap	-94±10%	0.34 ± 0.3	-93±7%	4.1 ± 2.16	-100%	0.63	–	–	–	–	–
CC(C)c1ccc(O)c(C(C)C)c1 [2,4-Diisopropylphenol]	-107±10%	17.2 ± 1.99	inactive	–	-115%	35.5	–	–	–	–	inactive
CC(=O)O[C@H]1C[C@H](O[C@H]2[C@@H](O)C[C@H](O[C@H]3[C@@H](O)C[C@H](O[C@H]4CC[C@@]5(C)[C@H](CC[C@@H]6[C@@H]5CC[C@]5(C)[C@@H](C7=CC(=O)OC7)[C@@H](O)C[C@]65O)C4)O[C@@H]3C)O[C@@H]2C)O[C@H](C)[C@H]1O[C@@H]1O[C@H](CO)[C@@H](O)[C@H](O)[C@H]1O [Lanatoside B]	-68±14%	–	inactive	–	-96%	0.69	1.1 ± 0.2	–	–	–	inactive
Cl.Nc1ccc(Nc2ccccc2)cc1	-69±28%	–	inactive	–	-54%	28.2	5.82 ± 6.96	–	–	–	inactive

Molecule	MMP assays efficacy (%) qHTS-HepG2 (HepG2 cells [1])	IC50 (HepG2 cells [1]; [5]) [µM]	MMP assays efficacy (%) Rat Hepatocytes (rat primary hepatocytes [2])	IC50 (rat primary hepatocytes [3]) [µM]	MMP assays efficacy (%) HepG2 (HepG2 cells [4])	IC50 (HepG2 cells [4]) [µM]	IC50 (HepG2 cells [1]; [6]) [µM]	IC50 (rat primary hepatocytes [3]; Rattus norvegicus, Hepatocyte) [µM]	MMP assays IC50 (µM) HepG2 (HepG2 cells [4])	MMP assays IC50 (µM) qHTS-HepG2 (HepG2 cells [1])	MMP assays IC50 (µM) Rat Hepatocytes (rat primary hepatocytes [3])
CCCCCCCC[P+](CCCCCCCC)(CCCCCCCC)CCCCCCCC.[Br-] [Tetraoctylphosphonium bromide]	-91±6%	–	-90±21%	6.82 ± 2.23	-105%	0.32	0.18 ± 0.12	–	–	–	–
Nc1c(Br)cc(Br)c2c1C(=O)c1ccccc1C2=O [1-Amino-2,4-dibromoanthraquinone]	-54±9%	2.78 ± 3.75	-48±19%	–	inactive	–	–	27.4 ± 4.44	inactive	–	–
CCC1(c2ccccc2)C(=O)NC(=O)N(C(=O)c2ccccc2)C1=O (stereo not shown) [Benzobarbital]	-82±27%	24.1 ± 5.12	inactive	–	inactive	–	–	–	inactive	–	inactive
O=C(NCc1cccnc1)Nc1ccc([N+](=O)[O-])cc1 [Pyrinuron]	-87±26%	–	-108±48%	25.8 ± 10.1	-81%	28.2	26.3 ± 1.71	–	–	–	–
O=C1NCN(c2ccccc2)C12CCN(CCCOc1ccc(F)cc1)CC2 [AMI-193]	-73±11%	5.82 ± 3.05	-37±21%	26 ± 12.2	-75%	7.74	–	–	–	–	–
O=C1c2ccccc2C(=O)C1c1ccccc1 [Phenindione]	inactive	–	inactive	–	inactive	–	–	–	inactive	inactive	inactive
CCCCCc1cc(O)c2c(c1)OC(C)(C)[C@@H]1CCC(C)=C[C@@H]21	-124±8%	4.99 ± 1.66	inactive	–	-99%	15.5	–	–	–	–	inactive
O=[Se](O)O [Selenious acid]	-68±13%	–	-75±56%	44.1 ± 26.9	inactive	–	16 ± 22.8	–	inactive	–	–
Nc1ccc(-c2ccc(N)c(N)c2)cc1N [3,3'-Diaminobenzidine]	-115±16%	13.7 ± 14.9	-62±22%	30.7 ± 28.3	-55%	4.47	–	–	–	–	–
Oc1cc(Cl)c(Cl)cc1Cl.[Na] [2,4,5-Trichlorophenol sodium salt]	-99±23%	5.05 ± 2.09	-130±56%	27.3 ± 25.2	-98%	10	–	–	–	–	–
O=C(N[C@@H]1N=C(c2ccccc2F)c2cccc3c2N(CC3)C1=O)c1cc2ccccc2[nH]1	-64±4%	8.41	-61±16%	17.3	-81%	13.8	–	–	–	–	–
CCO[Si](CC(C)C)(OCC)OCC [Triethoxy(2-methylpropyl)silane]	-66±5%	–	inactive	–	-83%	35.5	28.9 ± 6.98	–	–	–	inactive
COc1ccc2c(=O)c(C)c(-c3ccccc3)oc2c1CN(C)C.Cl [Dimefline hydrochloride]	inactive	–	inactive	–	inactive	–	–	–	inactive	inactive	inactive
CN1C[C@H](C(=O)N[C@]2(C)O[C@@]3(O)[C@@H]4CCCN4C(=O)[C@H](Cc4ccccc4)N3C2=O)C=C2c3cccc4[nH]cc(c34)C[C@H]21 [Ergotamine D-tartrate]	-54±10%	7.55 ± 1.06	inactive	–	inactive	–	–	–	inactive	–	inactive
Cc1cccc(C)c1Nc1ncccc1C(=O)O [Metanixin]	-122±21%	–	-93±28%	21 ± 1.37	-101%	21.8	26 ± 2.11	–	–	–	–
Cl.Cl.NNCc1ccccc1 [Benzylhydrazine dihydrochloride]	-106±12%	27.8 ± 3.21	inactive	–	-88%	19.9	–	–	–	–	inactive
